Experimental findings from patent publication US7642274B2, “Inhibitor of pain threshold decrease” (Santen Pharmaceutical Co., Ltd., priority 2003, dated 2010) are described below.

Structures can show the parent of a compound that is named as a salt.

In assay [1] the test system is repetitive cold stress rat models. In words: Test for inhibition of pain threshold decrease by repetitive cold stress (continuous administration), Randall-Selitto method. The class given is in vivo. The settings on record: for inhibition in vivo at 3 mg/kg: Rattus norvegicus, 192 h, day 8 after applying the repetitive cold stress, orally 3 mg/kg once a day, with stress, average of 5 or 6 cases, read-out: Rate of inhibition of pain threshold decrease (%); for inhibition in vivo at 3 mg/kg / Rate of inhibition of pain threshold decrease (%): po; for Rate of inhibition of pain threshold decrease (%): rat, in vivo.

For assay [2] the test system is unchanged. In words: Test for inhibition of pain threshold decrease by repetitive cold stress (single administration), Randall-Selitto method. The class given is in vivo. As to conditions: 24 hours after single administration on day 8 of repetitive cold stress; orally 3 mg/kg; with stress; average of 6 cases.

On to `COc1ccc(OCCCN(CCO)C(C)C)c(C2Sc3cc(Cl)ccc3N2C(C)=O)c1.Cl` (single isomer, unassigned; (+)) [Compound A, (+)-3-acetyl-6-chloro-2-[2-(3-(N-(2-hydroxyethyl)-N-isopropylamino)propoxy)-5-methoxyphenyl]benzothiazoline hydrochloride], for which the inhibition in vivo at 3 mg/kg in assay [1] was 52.1%. In addition, in assay [2], the “Pain threshold (mmHg)” value is 21.7 mmHg and the “Rate of inhibition of pain threshold decrease (%)” value is 0%.
For the compound `CC(=O)OC(C(=O)O)C(OC(C)=O)C(=O)O.COCCN(CCCOc1ccc(OC)cc1C1Sc2cc(Cl)ccc2N1C(C)=O)C(C)C` (single isomer, unassigned; (+)) [Compound B, (+)-3-acetyl-6-chloro-2-[2-(3-(N-(2-methoxyethyl)-N-isopropylamino)propoxy)-5-methoxyphenyl]benzothiazolinediacetyl tartrate], the “Rate of inhibition of pain threshold decrease (%)” value in assay [1] (3 mg/kg) is reported as 53.9%. For the same compound, in assay [2], the “Pain threshold (mmHg)” value stood at 21.5 mmHg and the “Rate of inhibition of pain threshold decrease (%)” value was −1.9%.
The corresponding values for `CC(=O)OC(C(=O)O)C(OC(C)=O)C(=O)O.CCOCCN(CCCOc1ccc(OC)cc1C1Sc2cc(Cl)ccc2N1C(C)=O)C(C)C` (single isomer, unassigned; (+)) [Compound C, (+)-3-acetyl-6-chloro-2-[2-(3-(N-(2-ethoxyethyl)-N-isopropylamino)propoxy)-5-methoxyphenyl]benzothiazolinediacetyl tartrate] are 73.4%, 21.7 mmHg and 0%.
Consider `COc1ccc(OCCCCl)c(C2Sc3cc(Cl)ccc3N2C(C)=O)c1` (single isomer, unassigned; (+)) [Compound F, (+)-3-acetyl-6-chloro-2-[2-(3-chloropropoxy)-5-methoxyphenyl]benzothiazoline hydrochloride], for which the inhibition in vivo at 3 mg/kg in assay [1] is 43.1%.
For the compound `COc1ccc(OCCCN(CCOC(C)=O)C(C)C)c(C2Sc3cc(Cl)ccc3N2C(C)=O)c1` (single isomer, unassigned; (+)) [Compound H, (+)-2-[2-(3-(N-(2-acetoxyethyl)-N-isopropylamino)propoxy)-5-methoxyphenyl]-3-acetyl-6-chlorobenzothiazoline hydrochloride], in assay [1], the inhibition in vivo at 3 mg/kg was determined as 34.5%.
As for `COCOCCN(CCCOc1ccc(OC)cc1C1Sc2cc(Cl)ccc2N1C(C)=O)C(C)C.Cl` (single isomer, unassigned; (+)) [Compound I, (+)-3-acetyl-6-chloro-2-[2-(3-(N-isopropyl-(N-methoxymethyloxyethyl)amino)propoxy)-5-methoxyphenyl]benzothiazoline hydrochloride], in assay [1] (3 mg/kg), the “Rate of inhibition of pain threshold decrease (%)” value is 43.1%.
Regarding `COc1ccc(OC(C)CCN(CCO)C(C)C)c(C2Sc3cc(Cl)ccc3N2C(C)=O)c1` (stereo not drawn) [Compound G, 3-acetyl-6-chloro-2-[2-(3-(N-(2-hydroxyethyl)-N-isopropylamino)-1-methylpropoxy)-5-methoxyphenyl]benzothiazoline hydrochloride], the inhibition in vivo at 3 mg/kg in assay [1] came out at 32.8%.
Take `CCOCCN(CCCOc1ccc(OC)cc1C1Sc2cc(Cl)ccc2N1C(C)=O)C(C)C.Cl` (stereo not drawn) [Compound K, 3-acetyl-6-chloro-2-[2-(3-(N-(2-ethoxyethyl)-N-isopropylamino)propoxy)-5-methoxyphenyl]benzothiazolinediacetyl hydrochloride]: in assay [1] (10 mg/kg), the “Rate of inhibition of pain threshold decrease (%)” value amounted to 62.7%.
Take `O=C(O)Cc1ccccc1Nc1c(Cl)cccc1Cl` [Compound L, Diclofenac, reference compound]: the “activity on inhibiting a decrease in pain threshold” value in assay [1] (result in words, continuous administration once a day, day 8 of repetitive cold stress) is “not observed at all”.
